Results from PMC5620609 (Pharmaceuticals, 2017).

Columns and labels:
[1] = tested on: MDA-MB-231; experiment: NCI 60 cell line panel: MDA-MB-231; assay type: cell-based, human; conditions: Breast cancer, TP53 null/mutant
From the text: (§1) Details of the NCI 60 One Dose Screen are well known and available online.

[2] = biological target: DNMT1 (Homo sapiens, UniProt P26358); experiment: Western blot for DNMT1, Kasumi-1 cells; assay type: cell-based; set-up: cytoplasmic and nuclear protein extracts from cells; endogenous in cells; host or cells: Kasumi-1; conditions: 0.1 and 0.2 µM, 6 days after exposure
Method: Cells were co-stained with Annexin-V and PI on day 2 and analyzed by flow cytometry.
Approximately 100 µg of cytoplasmic and nuclear protein extracts from cells, together with molecular weight markers, were subjected to SDS-PAGE on 4–12% gradient gels (Invitrogen, Carlsbad, CA, USA) followed by transfer to polyvinylidene fluoride membranes (Invitrogen). Blots were probed using antibodies for DNMT1 (Abcam ab16632).

[3] = tested on: TP53 WT colon cancer cell line LoVo; experiment: In vitro growth inhibition (CellTiter-Glo), LoVo; assay type: cell-based; conditions: Homo sapiens, 72 h exposure
Method: (§2) Further testing was performed in colon cancer cell lines.
(§3) Cells were grown in an appropriate medium for the cell line of interest; 96 well plates of each cell line were seeded with 5000 cells per well and left overnight. Drug exposed cells were incubated at 37 °C for 72 h. At the end of the 72 h exposure period, plates were removed for the CellTiter-Glo® assay. Luminescence was recorded on a Synergy 4.0. Assays were performed in triplicate.

[4] = tested on: MALME-3M; experiment: NCI 60 cell line panel: MALME-3M; assay type: cell-based, human; conditions: Melanoma, TP53 wild type
From the text: as §1

[5] = tested on: DU-145; experiment: NCI 60 cell line panel: DU-145; assay type: cell-based, human; conditions: Prostate cancer, TP53 null/mutant
From the text: as §1

[6] = tested on: K-562; experiment: NCI 60 cell line panel: K-562; assay type: cell-based, human; conditions: Leukemia, TP53 null/mutant
From the text: as §1

[7] = tested on: A498; experiment: NCI 60 cell line panel: A498; assay type: cell-based, human; conditions: Renal cancer, TP53 wild type
From the text: as §1

[8] = tested on: NCI-H522; experiment: NCI 60 cell line panel: NCI-H522; assay type: cell-based, human; conditions: NSCL, TP53 null/mutant
From the text: as §1

[9] = tested on: CAKI-1; experiment: NCI 60 cell line panel: CAKI-1; assay type: cell-based, human; conditions: Renal cancer, TP53 wild type
From the text: as §1

[10] = tested on: TK-10; experiment: NCI 60 cell line panel: TK-10; assay type: cell-based, human; conditions: Renal cancer, TP53 null/mutant
From the text: as §1

[11] = biological target: T1, RNR (Homo sapiens, UniProt P23921); experiment: RNR inhibition whole cell assay (HPLC of nucleotides from HeLa cell extracts); assay type: cell-based; conditions: 50 µM, 16 h
T1 construct: endogenous in cells; host or cells: HeLa
T1 sequence (P23921 1-792): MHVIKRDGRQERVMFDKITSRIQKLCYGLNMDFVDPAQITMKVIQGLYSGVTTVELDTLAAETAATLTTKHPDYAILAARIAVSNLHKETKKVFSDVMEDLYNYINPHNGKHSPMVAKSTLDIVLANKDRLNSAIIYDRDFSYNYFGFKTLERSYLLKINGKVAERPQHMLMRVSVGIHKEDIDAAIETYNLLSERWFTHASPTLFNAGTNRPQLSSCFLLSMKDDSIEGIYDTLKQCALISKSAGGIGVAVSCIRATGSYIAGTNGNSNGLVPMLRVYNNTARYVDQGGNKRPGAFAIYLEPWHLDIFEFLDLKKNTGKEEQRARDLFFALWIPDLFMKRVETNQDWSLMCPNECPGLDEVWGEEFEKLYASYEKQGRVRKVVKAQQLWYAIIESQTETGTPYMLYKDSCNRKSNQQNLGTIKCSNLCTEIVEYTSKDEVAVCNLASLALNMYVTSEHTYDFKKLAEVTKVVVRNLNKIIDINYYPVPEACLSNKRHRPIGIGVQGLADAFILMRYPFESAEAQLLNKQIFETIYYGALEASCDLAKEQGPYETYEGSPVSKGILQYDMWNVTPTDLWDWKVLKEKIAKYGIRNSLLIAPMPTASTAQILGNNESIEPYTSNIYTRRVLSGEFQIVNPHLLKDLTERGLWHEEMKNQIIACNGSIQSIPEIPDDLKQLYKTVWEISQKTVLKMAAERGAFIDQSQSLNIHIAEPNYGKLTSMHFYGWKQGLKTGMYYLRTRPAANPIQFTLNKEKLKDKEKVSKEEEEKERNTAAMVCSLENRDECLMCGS
T1 sequence (P31350 1-389 partner): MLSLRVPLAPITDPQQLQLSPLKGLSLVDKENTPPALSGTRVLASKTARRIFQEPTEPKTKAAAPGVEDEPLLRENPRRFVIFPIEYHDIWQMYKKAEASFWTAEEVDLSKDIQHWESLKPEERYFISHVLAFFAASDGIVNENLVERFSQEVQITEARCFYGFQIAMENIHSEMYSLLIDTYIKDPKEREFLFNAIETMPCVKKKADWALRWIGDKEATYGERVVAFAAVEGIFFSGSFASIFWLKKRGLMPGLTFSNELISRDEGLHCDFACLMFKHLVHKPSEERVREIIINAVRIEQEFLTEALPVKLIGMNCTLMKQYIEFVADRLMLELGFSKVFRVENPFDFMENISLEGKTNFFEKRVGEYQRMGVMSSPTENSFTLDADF
From the text: Gemcitabine was used as a positive control.
The method used to extract and quantitate nucleotides followed previously reported procedures.

[12] = tested on: SR; experiment: NCI 60 cell line panel: SR; assay type: cell-based, human; conditions: Leukemia, TP53 wild type
From the text: as §1

[13] = tested on: TP53 WT colon cancer cell line Ls174T; experiment: In vitro growth inhibition (CellTiter-Glo), Ls174T; assay type: cell-based; conditions: Homo sapiens, 72 h exposure
Method: as §2, §3

[14] = tested on: SK-MEL-28; experiment: NCI 60 cell line panel: SK-MEL-28; assay type: cell-based, human; conditions: Melanoma, TP53 null/mutant
From the text: as §1

[15] = tested on: NCI-H460; experiment: NCI 60 cell line panel: NCI-H460; assay type: cell-based, human; conditions: NSCL, TP53 wild type
From the text: as §1

[16] = tested on: 786-0; experiment: NCI 60 cell line panel: 786-0; assay type: cell-based, human; conditions: Renal cancer, TP53 null/mutant
From the text: as §1

[17] = tested on: HCT-116; experiment: NCI 60 cell line panel: HCT-116; assay type: cell-based, human; conditions: Colon cancer, TP53 wild type
From the text: as §1

DNMT1, sequence (P26358 whole entry): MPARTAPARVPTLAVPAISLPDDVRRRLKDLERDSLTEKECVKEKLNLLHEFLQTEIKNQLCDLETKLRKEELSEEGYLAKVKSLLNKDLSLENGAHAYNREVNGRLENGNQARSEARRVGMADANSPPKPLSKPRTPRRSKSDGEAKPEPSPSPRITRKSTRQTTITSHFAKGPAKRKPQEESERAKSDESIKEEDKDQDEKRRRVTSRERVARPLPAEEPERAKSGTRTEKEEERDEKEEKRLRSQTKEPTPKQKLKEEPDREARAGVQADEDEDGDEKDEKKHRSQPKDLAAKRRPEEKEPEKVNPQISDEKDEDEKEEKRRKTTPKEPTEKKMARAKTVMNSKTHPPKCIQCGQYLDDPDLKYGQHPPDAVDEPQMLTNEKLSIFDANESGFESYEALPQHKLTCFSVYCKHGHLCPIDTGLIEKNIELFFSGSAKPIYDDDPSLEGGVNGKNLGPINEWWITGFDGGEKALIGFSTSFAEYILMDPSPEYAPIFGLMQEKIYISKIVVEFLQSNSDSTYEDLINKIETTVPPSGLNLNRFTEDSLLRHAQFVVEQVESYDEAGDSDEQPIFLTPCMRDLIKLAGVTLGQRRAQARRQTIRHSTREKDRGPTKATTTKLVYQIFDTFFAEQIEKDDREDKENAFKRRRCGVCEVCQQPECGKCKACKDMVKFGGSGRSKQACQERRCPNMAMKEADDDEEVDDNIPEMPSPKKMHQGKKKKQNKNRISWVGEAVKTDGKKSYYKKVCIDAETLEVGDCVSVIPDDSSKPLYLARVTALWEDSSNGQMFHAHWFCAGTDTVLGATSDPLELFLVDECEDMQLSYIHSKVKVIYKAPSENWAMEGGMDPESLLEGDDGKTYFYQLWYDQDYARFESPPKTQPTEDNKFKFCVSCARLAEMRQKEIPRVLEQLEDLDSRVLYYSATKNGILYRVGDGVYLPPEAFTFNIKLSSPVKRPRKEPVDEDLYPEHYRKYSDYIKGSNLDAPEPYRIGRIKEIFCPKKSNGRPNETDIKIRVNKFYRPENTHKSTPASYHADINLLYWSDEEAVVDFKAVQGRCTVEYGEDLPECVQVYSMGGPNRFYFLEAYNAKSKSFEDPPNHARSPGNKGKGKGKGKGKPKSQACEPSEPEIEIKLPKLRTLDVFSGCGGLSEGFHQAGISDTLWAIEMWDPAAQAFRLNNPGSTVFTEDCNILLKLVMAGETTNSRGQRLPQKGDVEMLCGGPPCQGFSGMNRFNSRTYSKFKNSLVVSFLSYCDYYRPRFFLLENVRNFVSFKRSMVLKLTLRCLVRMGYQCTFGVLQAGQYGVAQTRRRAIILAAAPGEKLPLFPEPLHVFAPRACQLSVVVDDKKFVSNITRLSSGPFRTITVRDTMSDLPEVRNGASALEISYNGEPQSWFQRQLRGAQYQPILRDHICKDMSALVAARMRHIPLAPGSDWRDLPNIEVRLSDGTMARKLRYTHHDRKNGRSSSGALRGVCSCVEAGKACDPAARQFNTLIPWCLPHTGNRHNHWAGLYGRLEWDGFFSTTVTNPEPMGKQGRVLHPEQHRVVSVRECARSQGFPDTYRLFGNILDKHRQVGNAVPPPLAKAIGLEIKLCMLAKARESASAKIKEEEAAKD

In the case of `Nc1ncn([C@@H]2O[C@H](CO)[C@@H](O)C2(F)F)c(=O)n1` [NUC013, 5-aza-2′,2′-difluroro deoxycytidine], the “Growth (%) at 10 µM” value [1] is reported as 79.98%, the “DNMT1 inhibition by western blot” value [2] is reported as “weaker than decitabine” and the GI50 [3] is reported as 3 µM. For the same compound, the “Growth (%) at 10 µM” value [4] was 67.90%, the “Growth (%) at 10 µM” value [5] was 43.48% and the “Growth (%) at 10 µM” value [6] was 65.66%. The “Growth (%) at 10 µM” value [7] was 38.04%, the “Growth (%) at 10 µM” value [8] was 86.91% and the “Growth (%) at 10 µM” value [9] was 27.86%. The “Growth (%) at 10 µM” value [10] was 91.13%, the ADP concentration [11] was 13,845 and the ATP concentration [11] was 21,335. The CTP concentration [11] was 1279, the GTP concentration [11] was 2006 and the UTP concentration [11] was 4070. The “dATP, peak area” value [11] was 10.2 AU, the “dGDP, peak area” value [11] was 5.6 AU and the “dTDP, peak area” value [11] was 18.65 AU. For the same compound, the “dUTP, peak area” value [11] was 8.8 AU, the “Growth (%) at 10 µM” value [12] was 14.99% and the GI50 [13] was 1.3 µM. For the same compound, the “Growth (%) at 10 µM” value [14] was 78.46%, the “Growth (%) at 10 µM” value [15] was 9.34% and the “Growth (%) at 10 µM” value [16] was 26.29%. The “Growth (%) at 10 µM” value [17] was 29.84%.
